The source of these data is US9486536B2 (Immunomedics, Inc., priority 2013, dated 2016).

One series addresses T1, CEACAM5 (Homo sapiens, UniProt P06731).
T1 sequence (P06731 35-676): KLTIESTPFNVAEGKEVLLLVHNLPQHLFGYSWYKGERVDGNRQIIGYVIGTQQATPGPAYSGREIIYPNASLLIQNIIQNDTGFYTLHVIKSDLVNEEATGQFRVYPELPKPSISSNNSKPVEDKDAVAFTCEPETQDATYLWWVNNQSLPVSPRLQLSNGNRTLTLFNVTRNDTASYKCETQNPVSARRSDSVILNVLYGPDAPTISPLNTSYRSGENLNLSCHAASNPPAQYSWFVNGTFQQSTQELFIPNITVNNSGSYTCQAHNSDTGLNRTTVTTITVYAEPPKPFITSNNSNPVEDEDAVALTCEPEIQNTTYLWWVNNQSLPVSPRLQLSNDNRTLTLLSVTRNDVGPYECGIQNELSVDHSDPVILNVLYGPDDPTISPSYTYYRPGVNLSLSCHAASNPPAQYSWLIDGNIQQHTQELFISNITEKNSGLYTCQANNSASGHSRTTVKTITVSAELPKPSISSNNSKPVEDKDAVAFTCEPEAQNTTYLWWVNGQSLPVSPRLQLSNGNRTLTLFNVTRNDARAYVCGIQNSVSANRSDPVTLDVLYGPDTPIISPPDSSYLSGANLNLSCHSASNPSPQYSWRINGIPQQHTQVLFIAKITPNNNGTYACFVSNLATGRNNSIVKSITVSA
In words: antibody binding to target antigen after conjugation. The protocol: Retention of antibody binding was confirmed by cell binding assays comparing binding of the conjugate to unconjugated antibody (Chari, 2008, Acc Chem Res 41:98-107). The potency of the conjugate was tested in a 4-day MTS assay using appropriate target cells.

The target in series [1] is DDD of the RII form of PKA. As to conditions: cited from earlier work.
The test system of series [2] is Capan-1 human pancreatic adenocarcinoma xenografts. Briefly: therapy of Capan-1 xenografts in nude mice. In kind it is in vivo. To be noted: for therapeutic response (FIG. 2): 2.25 mg/kg protein dose twice weekly×2 weeks, compared with hMN-14 conjugate. As to the method:
FIG. 2. Therapy in nude mice bearing s.c. human tumor xenografts using 2.25 mg/kg protein dose (0.064 mg/kg of drug dose) of MAb-P2PDox conjugates twice weekly×2 weeks in nude mice with Capan-1 human pancreatic adenocarcinoma xenografts (n=5).
Tumors were measured and mice weighed twice a week.
At 63 days after Capan-1 tumor injection (with therapy starting at 1 days post-innoculation), 0 of 10 mice were alive in the saline control, 10 of 10 mice were alive in mice treated twice weekly×2 weeks with 45 μg of hPAM4-P2PDox, 2 of 10 mice were alive in mice treated twice weekly×2 weeks with 45 μg of hA20-P2PDox, 0 of 10 mice were alive in mice treated twice weekly×4 weeks with 250 μg of hPAM4-SN-38, and 0 of 10 mice were alive in mice treated twice weekly×4 weeks with 250 μg of h20-SN-38.

Series [3] has as its system NCI-N87 human gastric carcinoma xenografts. In words: therapy of NCI-N87 xenografts in nude mice. In kind it is in vivo. As to conditions: for therapeutic response (FIG. 3): 2.25 mg/kg protein dose twice weekly×2 weeks, compared with hMN-14 conjugate; for effect on tumors, one treatment cycle: 4×45 μg. As to the method:
FIG. 3A. Therapy in nude mice bearing s.c. human tumor xenografts using 2.25 mg/kg protein dose (0.064 mg/kg of drug dose) of MAb-P2PDox conjugates twice weekly×2 weeks in nude mice (n=7) with NCI-N87 human gastric carcinoma xenografts.
Tumor size was determined by caliper measurements of length (L) and width (W) with tumor volume calculated as (L×W^2)/2. Tumors were measured and mice weighed twice a week. Mice were euthanized if their tumors reached >1 cm^3 in size, lost greater than 15% of their starting body weight, or otherwise became moribund. Statistical analysis for the tumor growth data was based on area under the curve (AUC) and survival time. Profiles of individual tumor growth were obtained through linear curve modeling. An f-test was employed to determine equality of variance between groups prior to statistical analysis of growth curves. A two-tailed t-test was used to assess statistical significance between all the various treatment groups and non-specific controls. For the saline control analysis a one-tailed t-test was used to assess significance. Survival studies were analyzed using Kaplan-Meier plots (log-rank analysis), using the Prism GraphPad Software (v4.03) software package (Advanced Graphics Software, Inc.; Encinitas, Calif.). All doses in preclinical experiments are expressed in antibody amounts. In terms of drug, 100 μg of antibody (5 mg/kg) in a 20-g mouse, for example, carries 1.4 μg-2.8 μg ([…]) of P2PDox equivalent dose when using an ADC with 3-6 drugs/IgG.
Using this dosing regimen, we examined the therapeutic effect of hRS7-P2PDox in 2 human tumor xenograft models, Capan-1 (pancreatic cancer) and NCI-N87 (gastric cancer). Therapy began 7 days after tumor transplantation in nude mice.
Anti-TROP-2 antibody conjugate, hRS7-P2PDox, was evaluated in nude mice bearing NCI-N87 human gastric cancer xenografts by administering a single bolus protein dose of 9 mg/kg, 6.75 mg/kg, 4.5 mg/kg, 2.25 mg/kg, or 1 mg/kg. The therapy was started when the mean tumor volume (mTV) was 0.256 cm^3.
Further in vivo efficacy studies were performed in nude mice implanted with NCI-N87 human gastric cancer xenografts (FIG. 13A-F).
The effect of varying dosage schedule on anti-tumor efficacy was examined (FIG. 14, FIG. 19A-G). The experiment began 9 days after tumor implantation when mean tumor volume for all groups was 0.383 cm^3, and ended on day 93 (84 days after initiation of therapy).

The subject of series [4] is Chronic Lymphocytic Leukemia (CLL). Briefly: treatment of CLL patients. In kind it is in vivo, human. As to the method:
Patients with previously untreated or relapsed CLL receive 4 doses of 70, 100 or 150 mg P2PDox-veltuzumab injected i.v. every two weeks. Only occasional mild to moderate transient injection reactions are seen and no other safety issues are observed, except for neutropenia, which can be controlled by interrupting therapy until improved or administering a G-CSF leukocyte stimulator, as per conventional practice. […] Objective responses are observed at all dose levels of P2PDox-veltuzumab, but with particularly high responses of 30% (mostly partial responses) at the highest dose. All serum samples evaluated for human anti-veltuzumab antibody (HAHA) are negative.

Series [5] is described as follows: MTD study of hLL1 conjugates in mice.
Procedure: The MTD of multiple injections, at a schedule of every four days for a total of four injections (q4dx4) was then determined, using protein doses between 25 μg to 150 μg per injection. At these doses, a cumulative dose of between 100 and 600 μg was given to the animals.
For series [6], the system named is HIV-1IIIB/MuLV infected splenocytes. Briefly: HIV-1/MuLV infected cell challenge in mice. To be noted: doses of 100-200 μg. In kind it is in vivo. The protocol: P4/D10-P2PDox is tested in vitro for its efficacy in eliminating HIV-1-infected cells among non-infected cells and in a mouse model by removing HIV-1/MuLV (murine leukemia virus) infected syngeneic cells from the intraperitoneal cavity.
A human T-cell line, CEM-1B, with a genetically integrated MuLV genome is infected with HIV-1IIIB, which leads to the production of pseudoviruses with the HIV-1 genome and the MuLV envelope (Adang et al., PNAS USA 1999, 96:12749-753; Hinkula et al., Cells Tissues Organs 2004, 177:169-184). These virus supernatants are used to infect splenocytes from C57B1/6×DBA F1 K^b/d mice transgenic for HLA-A201. Isogenic mice are challenged with HIV-1IIIB/MuLV infected splenocytes i.p. and are immediately given conjugated antibodies or free antibodies i.p. Ten days after challenge, mice are sacrificed and peritoneal cells collected. Peritoneal cells are pelleted and added to 1×10^6 HIV susceptible Jurkat T-cells or human PBMC grown in 24-well plates. From these secondary cultures, supernatant is removed and fresh medium added every 3-4 days. The amount of infectious HIV recovered in the supernatant is measured for 3 weeks by p24 ELISA.
To test the efficacy of P4/D10-P2PDox in vivo, mice are given isogeneic HIV/MuLV-infected cells together with conjugates intraperitoneally.

Series [7] has as its system Capan-1, BxPC-3 and AsPC-1 human pancreatic tumor lines and AGS, NCI-N87 and LS147T human gastric and colonic tumor lines. In words: cytotoxicity of P2PDox-mAb conjugates to target cells. In kind it is cell-based. As to conditions: not shown. The text has this: The cytotoxicity of P2PDox-mAb conjugates to target cells was examined. hRS7-P2PDox and hMN-15-P2PDox were cytotoxic to MDA-MB-468, AG S, NCI-N87 and Capan-1 solid tumor cell lines (not shown). hMN-14-P2PDox was cytotoxic to Capan-1, BxPC-3 and AsPC-1 human pancreatic tumor lines and AGS, NCI-N87 and LS147T human gastric and colonic tumor lines (not shown). hLL2-P2PDOx was cytotoxic to Daudi, Raji, Ramos and JVM-3 hematopoietic tumor lines (not shown). IC50 values for the conjugates were in the nanomolar concentration range (not shown).

Series [8] has as its system Trop-2-positive human pancreatic adenocarcinoma cell line (BxPC-3). Briefly: ADCC with PBMCs, effector to target ratio 100:1. To be noted: 33.3 nM. In kind it is cell-based. The protocol:
The ADCC activity of various hRS7-ADC conjugates was determined in comparison to hRS7 IgG (FIG. 17). PBMCs were purified from blood purchased from the Blood Center of New Jersey. A Trop-2-positive human pancreatic adenocarcinoma cell line (BxPC-3) was used as the target cell line with an effector to target ratio of 100:1. ADCC mediated by hRS7 IgG was compared to hRS7-Pro-2-PDox, hRS7-CL2A-SN-38, and the reduced and capped hRS7-NEM. All were used at 33.3 nM.

Series [9] concerns metastatic ductal adenocarcinoma of the pancreas. In words: treatment of a patient with metastatic pancreatic cancer. In kind it is in vivo, human. The protocol: A person with metastatic ductal adenocarcinoma of the pancreas, who has relapsed after prior therapies with FOLFIRINOX followed by Nab-taxol (Abraxane®) plus gemcitabine is given PAM4-P2PDox ADC at a dose of 120 mg every other week for 4 courses, and after a 3-week delay, another course of 2 injections 2 weeks apart are given intravenously.

The mark [10] stands for this setting: twice weekly×2 weeks with 45 μg.

On to “P2PDox-hMN-24: P2PDox conjugate printed as hMN-24 (anti-CEACAM5)”, for which the “effect of conjugation on antibody binding” value in the series with CEACAM5 is “lack of effect of conjugation on antibody binding to target antigen”.

QIEYLAKQIVDNAIQQA [AKAP-IS]: the Kd in [1] (read-out: binding constant for DDD) was 0.4 nM.

As for QIEYVAKQIVDYAIHQA [SuperAKAP-IS], in series [1], the “selectivity for the RII isoform of PKA compared with the RI isoform” value is on record as “five order of magnitude higher selectivity”.

hA20-P2PDox: in series [2], the “therapeutic response (FIG. 2)” value is “ineffective”. Further, in series [2] (setting [10]), the “mice alive at 63 days after tumor injection” value (“mice alive at 63 days” below) is listed as 2 of 10. In addition, in series [3], the “therapeutic response (FIG. 3)” value is listed as “ineffective” and the “effect on tumors, one treatment cycle” value was “little effect on tumor progression”. Moreover, the effect on survival entry in [3] (same dosage schedules (45 μg q4dx4, 90 μg weekly×2, 180 μg single)) was “no effect on survival”. In [4] (150 mg i.v. every two weeks, 4 doses, mostly partial responses), the “objective responses at the highest dose” value was 30%. The “B-cell and CLL ablation” value in series [4] (all dosage levels) is “Rapid B-cell and CLL ablation”. Moreover, the “human anti-veltuzumab antibody (HAHA) in serum samples” value in [4] (human, in vivo) is “negative”.

On to hLL1-P2PDox, for which the “signs of toxicity (weight loss)” value in [5] (25 μg i.v. q4dx4) is “no signs of toxicity”. The “potency compared with 2-PDox conjugate of hLL1 in MTD study” value in series [5] (not shown) is on record as “much more potent”. The “MTD for fractionated dosing” value in series [5] (protein dose, every 4 days for 2 weeks (q4dx4), after analysis and repetition of the experiment) was 45 µg. Further, the “MTD for multiple injections” value in series [5] (q4dx4, from this experiment) was 25 µg. For the same molecule, the “dose tolerated when administered as a single injection” value in [5] (single injection (not shown)) was found to be 100 µg. Also, the “effect on tumors, one treatment cycle” value in series [3] is reported as “little effect on tumor progression”. In series [6], the “protection by control conjugates” value was “None of the P2PDox-conjugated control antibodies (hLL1 or hRS7) provide any protection”.

With hMN-14-P2PDox, the cytotoxicity result in series [7] was “cytotoxic”. Moreover, in series [3], the “effect on tumors, one treatment cycle” value is given as “little effect on tumor progression”.

As to “hRS7 IgG: unconjugated humanized anti-TROP-2 antibody”, the “specific lysis (ADCC)” value in series [8] is listed as 8.5%.

Consider hRS7-SN-38 [reference compound], for which the “therapeutic response (FIG. 2)” value in [2] is on record as “better therapeutic responses”. Moreover, the “therapeutic response (FIG. 3)” value in series [3] is recorded as “better therapeutic responses”.

B1: hPAM4-P2PDox (conjugate, chains of the INN, looked up)
VH: QVQLQQSGAEVKKPGASVKVSCEASGYTFPSYVLHWVKQAPGQGLEWIGYINPYNDGTQYNEKFKGKATLTRDTSINTAYMELSRLRSDDTAVYYCARGFGGSYGFAYWGQGTLVTVSS
VL: DIQLTQSPSSLSASVGDRVTMTCSASSSVSSSYLYWYQQKPGKAPKLWIYSTSNLASGVPARFSGSGSGTDFTLTISSLQPEDSASYFCHQWNRYPYTFGGGTRLEIK
modifications: P2PDox (pro-2-pyrrolinodoxorubicin) payload
Take B1: the “inhibition of tumor growth compared with the SN-38 conjugate of the same antibody” value in series [2] (not shown) was “more effective at inhibiting growth”. Moreover, in [2] (setting [10]), the “mice alive at 63 days” value is listed as 10 of 10. The “shrinkage of the sum of the 3 target lesions in the liver” value in series [9] (120 mg every other week, CT at 8 weeks) was 18%. Besides, the “reduction of CA19-9 blood titer” value in [9] (baseline value of 12,400) is listed as 55%. Moreover, in [9] (recovers before the second course), the “hematological toxicity after the first course” value was “Grade 3 neutropenia”.

B2: hPAM4-SN-38: hPAM4 antibody conjugated to SN-38 (conjugate, chains of the INN, looked up)
VH: B1 VH
VL: B1 VL
modifications: SN-38 conjugate
Turning to B2, the “mice alive at 63 days” value in series [2] (twice weekly×4 weeks with 250 μg) was 0 of 10.
